Data as given in US20090105217A1, “2-PHENYL-5-AMINO-1,3,4-OXADIAZOLES AND THEIR USE AS NICOTINIC ACETYLCHOLINE RECEPTOR LIGANDS” (priority 2007, published 2009).

Target: T1, human α7 nAChR (Homo sapiens, UniProt P36544)
T1 construct: host or cells: GH4C1 cells (pituitary tumor, immortalized cell line)
Assay: α7 nAChR FLIPR (Fluorometric Imaging Plate Reader) Ca2+ assay, agonist EC50
Assay type: cell-based
Conditions: GH4C1 cells stably transfected with human α7 nAChR; Fluo-4 Ca2+ fluorescence; Examples 194 to 205 tested as the HCl salt; read-out: pEC50 value (negative logarithm of the agonist EC50) (converted)
Method in brief: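 GH4C1 cells stably expressing human α7 nAChR, loaded with 2 μM Fluo-4 for 45–60 min at 37 °C in HEPES buffer pH 7.3 with 2 mM CaCl2 and 2.5 mM probenecid. Peak calcium fluorescence (ex 488, em 510–580 nm) after compound addition fitted for agonist EC50, reported as pEC50.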

T1 sequence (P36544 23-502): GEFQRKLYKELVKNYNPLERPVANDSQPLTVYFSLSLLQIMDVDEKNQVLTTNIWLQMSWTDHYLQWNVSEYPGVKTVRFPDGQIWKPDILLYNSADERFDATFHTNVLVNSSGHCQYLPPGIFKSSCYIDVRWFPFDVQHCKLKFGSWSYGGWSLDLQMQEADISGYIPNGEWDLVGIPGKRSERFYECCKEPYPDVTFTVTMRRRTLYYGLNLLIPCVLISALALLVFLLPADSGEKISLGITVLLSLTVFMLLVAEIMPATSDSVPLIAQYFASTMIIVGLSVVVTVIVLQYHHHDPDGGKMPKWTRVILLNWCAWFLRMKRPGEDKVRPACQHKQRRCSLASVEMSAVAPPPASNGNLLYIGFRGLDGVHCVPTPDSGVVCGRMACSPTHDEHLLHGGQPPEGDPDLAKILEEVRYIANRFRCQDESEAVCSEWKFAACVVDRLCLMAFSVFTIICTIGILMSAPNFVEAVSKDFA

O=C(Nc1ccc(-c2nnc(NCCCN3CCCC3)o2)c(F)c1)c1ccccc1F [Example 47, 2-fluoro-N-[3-fluoro-4-(5-{[3-(1-pyrrolidinyl)propyl]amino}-1,3,4-oxadiazol-2-yl)phenyl]benzamide]
EC50: ≤ 1000 nM
